Laboratory results: PubChem BioAssay AID2060503 (Molecular Pharmacology Branch, DTP, NCI, 2025)
pIC50: −log10 of the molar value.

Test system: 817829-284-R-J1-PDC complex spheroids, viability
Experiment: Anticancer human tumor 817829-284-R-J1-PDC patient-derived colon adenocarcinoma cell line growth inhibition [GQUAD]
Details: for pIC50: curve of first compound; for viability, T/C: stronger effect = lower value
Description: DNA G-quadruplex Stabilizer Agents in Combinations in Complex Spheroids
A high-throughput screen of multi-cell type tumor spheroids was designed to identify active combinations of DNA G-quadruplex stabilizer agents and targeted small molecules. Complex spheroids include a stromal component modeled by human endothelial cells (HUVEC) and fibroblasts modeled by human mesenchymal stem cells (MSCs). The concentration ranges selected for each drug and investigational agent were based upon clinically achievable concentrations if the clinical Cmax of the agent was known.
Compounds. The drugs and investigational agents: pidnarulex (CX-5461; NSC782164), APTO-253 (NSC789042), BRACO-19 (NSC847499), peposertib (NSC802822), ceralasertib (NSC780249), elimusertib (NSC800525), camonsertib (NSC841442), AZD-1390 (NSC803789), olaparib (NSC753686), talazoparib (NSC767125), ART-558 (NSC835418), sotorasib (NSC818433), MRTX-1133 (NSC836407), SN-38 (NSC673596), topotecan (NSC609699), etoposide (NSC141540), doxorubicin (NSC123127), gemcitabine (NSC613327), 5-fluorouracil (NSC19893), paclitaxel (NSC125973), vemurafenib (NSC761431), panobinostat (NSC761190), R-306465 (JNJ-16241199; NSC773264), adavosertib (NSC754352), TP-3654 (NSC805149), carboplatin (NSC241240), KSQ-4279 (NSC840948), and staurosporine (NSC755774) were obtained from the National Cancer Institute (NCI) Developmental Therapeutics Program Chemical Repository (34). The FDA-approved anticancer drug set is available from the NCI Developmental Therapeutics Program. […] The stock solutions were prepared in dimethyl sulfoxide (DMSO, Sigma-Aldrich, St. Louis, MO, cat. D2650) at 800-fold the tested concentration and stored at -70 degrees C prior to their use. All drugs and investigational agents were tested over a range starting from a high concentration at or near the clinical Cmax and decreasing in half-log increments. If the clinical Cmax for an agent had not been determined, the highest concentration tested was 10 microM.
2.3 Cell Culture. All cells were maintained in an incubator at 37 degrees C and 5% CO2 with 95% humidity. The PDC lines were cultured according to standard operating procedures established by the NCI PDMR. All PDCs were thawed and cultured in Matrigel-coated flasks prepared with a working solution of 1X Ham's F-12 nutrient mix, without supplementation (Invitrogen, cat. 11765054), 100 U/mL penicillin-streptomycin (Invitrogen, cat. 15140122), and 2.5% Matrigel (Corning Inc., cat. 354248) for the first three passages. The 857933-349-R-J2-PDC line was cultured in 6C/Colon 1B media, which includes advanced DMEM/F-12 (Thermo Fisher Scientific, cat. 12634028), 10 mM HEPES (Thermo Fisher Scientific, cat. 15630080), 1X GlutaMAX supplement (Thermo Fisher Scientific, cat. 35050061), 0.1 mg/mL primocin (InvivoGen, cat. ant-pm-2), 10% defined fetal bovine serum, heat inactivated (HyClone Laboratories Inc., cat. SH30070.03HI), 50% L-WRN conditioned media (ATCC, cat. CRL-3276), 1.25 mM N-Acetyl-L-cysteine (Sigma-Aldrich, cat. A9165), 10 mM nicotinamide (Sigma-Aldrich, cat. N0636), 1X B-27 supplement (Thermo Fisher Scientific, cat. 17504044), 1X N-2 supplement (Thermo Fisher Scientific, cat. 17502048), 10 microM Y-27632 dihydrochloride (Tocris Bioscience, cat. 1254), and 50 ng/mL human EGF recombinant protein (Thermo Fisher Scientific, cat. PHG0311). The 485176-168-R4-J1-PDC line was cultured in Panc media, which includes all 6C/Colon 1B media components plus 100 ng/mL human FGF-10 (Thermo Fisher Scientific, cat. 100-26), 500 nM SB-431542 (Selleckchem, cat. S1067), and gastrin (Tocris, cat. 3006).
[…]

[1] = second compound 0.0316 µM, first compound 0.0316 µM
[2] = second compound 0.0316 µM, first compound 0.316 µM
[3] = second compound 0.1 µM, first compound 0.0316 µM
[4] = second compound 0.1 µM, first compound 0.316 µM
[5] = second compound 0.316 µM, first compound 0.0316 µM
[6] = second compound 0.316 µM, first compound 0.316 µM
[7] = second compound 1 µM, first compound 0.0316 µM
[8] = second compound 1 µM, first compound 0.316 µM
[9] = second compound 3.16 µM, first compound 0.0316 µM
[10] = second compound 3.16 µM, first compound 0.316 µM
[11] = second compound 10 µM, first compound 0.0316 µM
[12] = second compound 10 µM, first compound 0.316 µM
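Further: spheroids exposed to agents for 7 days before readout.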
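Wherever viability, T/C is given: percent viability relative to DMSO vehicle control taken as 100%.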

SMILES: C=CC(=O)N1CCN(c2nc(=O)n(-c3c(C)ccnc3C(C)C)c3nc(-c4c(O)cccc4F)c(F)cc23)C(C)C1 (centres undefined) + CN(C)c1ccc(Nc2c3ccc(NC(=O)CCN4CCCC4)cc3nc3cc(NC(=O)CCN4CCCC4)ccc23)cc1
- pIC50 (second compound 0.0316 µM): < 5.00
- pIC50 (second compound 0.1 µM): < 5.00
- pIC50 (second compound 0.316 µM): < 5.00
- pIC50 (second compound 1 µM): < 5.00
- pIC50 (second compound 3.16 µM): < 5.00
- pIC50 (second compound 10 µM): 5.14
- viability, T/C [1]: 101%
- viability, T/C (second compound 0.0316 µM, first compound 0.1 µM): 103%
- viability, T/C [2]: 97.5%
- viability, T/C (second compound 0.0316 µM, first compound 1 µM): 99.4%
- viability, T/C (second compound 0.0316 µM, first compound 3.16 µM): 83.7%
- viability, T/C (second compound 0.0316 µM, first compound 10 µM): 80%
- viability, T/C [3]: 99.7%
- viability, T/C (second compound 0.1 µM, first compound 0.1 µM): 103%
- viability, T/C [4]: 104%
- viability, T/C (second compound 0.1 µM, first compound 1 µM): 98.7%
- viability, T/C (second compound 0.1 µM, first compound 3.16 µM): 106%
- viability, T/C (second compound 0.1 µM, first compound 10 µM): 85.4%
- viability, T/C [5]: 91.3%
- viability, T/C (second compound 0.316 µM, first compound 0.1 µM): 107%
- viability, T/C [6]: 89.6%
- viability, T/C (second compound 0.316 µM, first compound 1 µM): 108%
- viability, T/C (second compound 0.316 µM, first compound 3.16 µM): 86.3%
- viability, T/C (second compound 0.316 µM, first compound 10 µM): 76.2%
- viability, T/C [7]: 96.2%
- viability, T/C (second compound 1 µM, first compound 0.1 µM): 107%
- viability, T/C [8]: 92.3%
- viability, T/C (second compound 1 µM, first compound 1 µM): 105%
- viability, T/C (second compound 1 µM, first compound 3.16 µM): 92.2%
- viability, T/C (second compound 1 µM, first compound 10 µM): 72.1%
- viability, T/C [9]: 95.6%
- viability, T/C (second compound 3.16 µM, first compound 0.1 µM): 97.5%
- viability, T/C [10]: 98.8%
- viability, T/C (second compound 3.16 µM, first compound 1 µM): 92.3%
- viability, T/C (second compound 3.16 µM, first compound 3.16 µM): 92.3%
- viability, T/C (second compound 3.16 µM, first compound 10 µM): 69.3%
- viability, T/C [11]: 101%
- viability, T/C (second compound 10 µM, first compound 0.1 µM): 105%
- viability, T/C [12]: 92.7%
- viability, T/C (second compound 10 µM, first compound 1 µM): 92.3%
- viability, T/C (second compound 10 µM, first compound 3.16 µM): 84.3%
- viability, T/C (second compound 10 µM, first compound 10 µM): 36.4%

SMILES: CC[C@@]1(O)C(=O)OCc2c1cc1n(c2=O)Cc2cc3c(CN(C)C)c(O)ccc3nc2-1 + CN(C)c1ccc(Nc2c3ccc(NC(=O)CCN4CCCC4)cc3nc3cc(NC(=O)CCN4CCCC4)ccc23)cc1
- pIC50 (second compound 0.0316 µM): 7.17
- pIC50 (second compound 0.1 µM): 7.23
- pIC50 (second compound 0.316 µM): 7.17
- pIC50 (second compound 1 µM): 7.20
- pIC50 (second compound 3.16 µM): 7.17
- pIC50 (second compound 10 µM): 7.12
- viability, T/C (second compound 0.0316 µM, first compound 0.000999 µM): 80.2%
- viability, T/C (second compound 0.0316 µM, first compound 0.00316 µM): 104%
- viability, T/C (second compound 0.0316 µM, first compound 0.00999 µM): 94.8%
- viability, T/C [1]: 65.9%
- viability, T/C (second compound 0.0316 µM, first compound 0.0999 µM): 45.4%
- viability, T/C [2]: 35.5%
- viability, T/C (second compound 0.1 µM, first compound 0.000999 µM): 97.1%
- viability, T/C (second compound 0.1 µM, first compound 0.00316 µM): 122%
- viability, T/C (second compound 0.1 µM, first compound 0.00999 µM): 108%
- viability, T/C [3]: 59.8%
- viability, T/C (second compound 0.1 µM, first compound 0.0999 µM): 44.5%
- viability, T/C [4]: 38.5%
- viability, T/C (second compound 0.316 µM, first compound 0.000999 µM): 89.7%
- viability, T/C (second compound 0.316 µM, first compound 0.00316 µM): 123%
- viability, T/C (second compound 0.316 µM, first compound 0.00999 µM): 107%
- viability, T/C [5]: 66.7%
- viability, T/C (second compound 0.316 µM, first compound 0.0999 µM): 46.4%
- viability, T/C [6]: 35.6%
- viability, T/C (second compound 1 µM, first compound 0.000999 µM): 111%
- viability, T/C (second compound 1 µM, first compound 0.00316 µM): 108%
- viability, T/C (second compound 1 µM, first compound 0.00999 µM): 105%
- viability, T/C [7]: 62.9%
- viability, T/C (second compound 1 µM, first compound 0.0999 µM): 45.9%
- viability, T/C [8]: 34%
- viability, T/C (second compound 3.16 µM, first compound 0.000999 µM): 114%
- viability, T/C (second compound 3.16 µM, first compound 0.00316 µM): 99.9%
- viability, T/C (second compound 3.16 µM, first compound 0.00999 µM): 101%
- viability, T/C [9]: 67.7%
- viability, T/C (second compound 3.16 µM, first compound 0.0999 µM): 41.5%
- viability, T/C [10]: 32.4%
- viability, T/C (second compound 10 µM, first compound 0.000999 µM): 102%
- viability, T/C (second compound 10 µM, first compound 0.00316 µM): 101%
- viability, T/C (second compound 10 µM, first compound 0.00999 µM): 84%
- viability, T/C [11]: 65.8%
- viability, T/C (second compound 10 µM, first compound 0.0999 µM): 45.6%
- viability, T/C [12]: 30.3%
